According to patent US20230023092A1, “TREATMENT OF DEPRESSION AND OTHER VARIOUS DISORDERS WITH PSILOCYBIN” (COMPASS […], priority 2019, published 2023):

Legend:
[1] = post-ingestion; cited from earlier work
subjects = details: 20 mg escitalopram; cited from earlier work
Wistar-Kyoto (WKY) rats = assay: Sleep-wake scoring (EEG/EMG: wake, NREM, REM) in rat model of TRD; assay type: in vivo; details: 5 and 10 mg/kg, s.c.
Description: Since WKY rats show decreased sensitivity to conventional monoamine-based antidepressant treatment, they are used as a model of TRD.
Male (WKY) rats (200-250 g) were implanted with electroencephalography (EEG) and electromyography (EMG) electrodes and telemetry transmitters under general anesthesia (2-5% isoflurane in Oxygen). A telemetry transmitter (HD-502, Data Sciences International) was placed in the peritoneal cavity, and the wires of the transmitter were passed through the muscle wall and then sub-dermally to the scalp to act as EEG/EMG electrodes. Two bore holes were made in the skull (Fronto-parietal coordinates; Bregma +2 mm anterior, midline +1.0 mm lateral and Lambda 0 mm, +1.5 mm lateral). The positive EEG electrode was attached to the anterior bore hole and the negative EEG electrode to the posterior bore hole. Both electrodes were secured in place using a suitable adhesive agent (Cyanoacrylate gel, RS components). […]
Animals were maintained on a 12/12 hour light dark cycle. On study days, the animals were placed in recording boxes and EEG/EMG, locomotor activity, as well as body temperature were recorded for 0.5 hours before and 24 hours after each dosing. […]
The subsequent EEG/EMG recordings were automatically scored as wake, non-REM (NREM) sleep, or REM sleep in 10 second epochs using SleepSign (Kissei Comtec, Japan). […]

Compound	Time to peak plasma concentration [1] [h]	Frequency of common side effects: agitation or restlessness; diarrhea; difficulty sleeping; drowsiness; dry mouth; headache; nausea; sexual difficulties; dizziness; sweating (subjects)	Amount of REM sleep (Wistar-Kyoto (WKY) rats)
CN(C)CCC[C@@]1(c2ccc(F)cc2)OCc2cc(C#N)ccc21 [escitalopram]	3 to 4	Common (~10% at 20 mg escitalopram)	–
CNC1(c2ccccc2Cl)CCCCC1=O (stereo not drawn) [ketamine]	–	–	decreased the amount of REM sleep in a dose-dependent manner
